Experimental data as given in PMC9268446 (Molecules, 2022).

How the values were obtained:
[1] = target: EV-A71 3C^pro (Human enterovirus 71, UniProt Q66478); experiment: FRET assay, inhibition of enterovirus A71 3C protease; format: biochemical
Procedure: (§1) We had previously shown that enterovirus 3C proteases have a substrate-binding site featuring some similarities with coronavirus main proteases, although their S2 subsite tends to be more open. Leucine is the ideal P2-amino-acid residue in M^pro substrates, whereas most 3C^pros favor Phe in this position.
(§2) Assay samples contained 59 µL of reaction buffer (20 mM HEPES, 120 mM NaCl, 0.4 mM EDTA, 20% glycerol, 4 mM DTT (freshly added before the measurements), pH 7.0, 10 µL enzyme solution (final concentration of Coxsackievirus B3 3C^pro or enterovirus A71 3C^pro: 1.0 µM).
(§3) All reactions were monitored at 37 °C for 15 min. Measurements of enzymatic activity were performed in triplicate and the value was presented as mean ± standard deviation (SD). The initial velocity of the enzymatic reaction with compounds was calculated by linear regression for the first minute of the progression curve. […] V0 is the velocity obtained for the DMSO control (inhibitor concentration of 0 µM).
(§4) […] of inhibitors (dose-response-inhibition). The IC50 values were calculated by non-linear regression (Curve fit: Y: Bottom + (Top-Bottom)/(1 + 10^ ((X-lg IC50))) using GraphPad Prism 9.0.

[2] = target: HCoV-NL63 M^pro (Human coronavirus NL63, UniProt P0C6X5); experiment: biochemical
HCoV-NL63 M^pro, sequence (P0C6X5 2940-3242): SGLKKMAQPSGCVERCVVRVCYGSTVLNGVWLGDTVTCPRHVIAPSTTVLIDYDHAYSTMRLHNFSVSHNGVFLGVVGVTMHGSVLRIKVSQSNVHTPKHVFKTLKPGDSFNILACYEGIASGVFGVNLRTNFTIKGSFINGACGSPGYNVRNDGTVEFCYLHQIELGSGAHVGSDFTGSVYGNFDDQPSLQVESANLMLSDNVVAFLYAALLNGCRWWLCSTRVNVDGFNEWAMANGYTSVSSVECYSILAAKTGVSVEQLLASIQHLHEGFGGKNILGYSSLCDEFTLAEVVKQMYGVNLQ

[3] = target: CVB3 3C^pro (Coxsackievirus B3, UniProt P03313); experiment: FRET assay, inhibition of Coxsackievirus B3 3C protease; format: biochemical
CVB3 3C^pro, sequence (P03313 1541-1723): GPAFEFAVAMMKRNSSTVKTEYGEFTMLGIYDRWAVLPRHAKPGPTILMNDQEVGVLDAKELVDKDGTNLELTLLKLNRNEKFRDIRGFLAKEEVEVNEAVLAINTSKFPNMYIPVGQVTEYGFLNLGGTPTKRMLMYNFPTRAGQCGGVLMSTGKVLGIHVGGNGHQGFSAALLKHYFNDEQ
Procedure: as §1, §2, §3, §4

[4] = target: SARS-CoV-2 M^pro (Severe acute respiratory syndrome coronavirus 2, UniProt P0DTD1); experiment: FRET assay, inhibition of recombinant SARS-CoV-2 Mpro (optimized conditions); format: biochemical; settings: FRET substrate Dabcyl-KTSAVLQ↓SGFRKM-E(Edans)-NH2, 50 nM enzyme, pH 7.0, 37 °C, 10 min preincubation
[5] = target: SARS-CoV M^pro (Severe acute respiratory syndrome coronavirus, UniProt P0C6X7); format: biochemical
[6] = inhibitor concentration not given, data not shown

EV-A71 3C^pro, sequence (Q66478 1549-1731): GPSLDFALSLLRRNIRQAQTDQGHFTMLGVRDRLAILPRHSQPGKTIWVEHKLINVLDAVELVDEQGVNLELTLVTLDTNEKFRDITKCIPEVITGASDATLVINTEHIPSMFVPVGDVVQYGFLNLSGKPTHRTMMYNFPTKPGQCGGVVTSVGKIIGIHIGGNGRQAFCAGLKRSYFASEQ

SMILES: CC(C)(C)NC(=O)NC(C(=O)N1CC2C(C1C(=O)NC(CC1CCNC1=O)C(=O)C(N)=O)C2(C)C)C(C)(C)C [MG-78, (1R,2S,5S)-N-((S)-4-Amino-3,4-dioxo-1-((S)-2-oxopyrrolidin-3-yl)butan2-yl)-3-((S)-2-(3-tert-butylureido)-3,3-dimethylbutanoyl)-6,6-dimethyl-3-azabicylo[3.1.0]hexane-2-carboxamide]
- IC50 ([1]; 10 µM FRET substrate Dabcyl-KEALFQ↓GPPQFE(-Edans)-NH2, 1.0 µM enzyme, 37 °C, read-out: IC50 against EV-A71 3C^pro): 6700 nM
- Factor by which IC50 versus HCoV-NL63 M^pro is larger than that for SARS-CoV-2 M^pro [2]: 25
- IC50 [2]: 330 nM
- IC50 ([3]; 10 µM FRET substrate Dabcyl-KEALFQ↓GPPQFE(-Edans)-NH2, 1.0 µM enzyme, 37 °C, read-out: IC50 against CVB3 3C^pro): 1450 nM

SMILES: CNC(=O)C(=O)[C@H](C[C@@H]1CCNC1=O)NC(=O)[C@@H]1[C@@H]2[C@H](CN1C(=O)[C@@H](NC(=O)NC(C)(C)C)C(C)(C)C)C2(C)C [MG-131, (1R,2S,5S)-3-((S)-2-(3-tert-Butylureido)-3,3-dimethylbutanoyl) -6,6-dimethyl-N-((S)-4-(methylamino)-3,4-dioxo-1-((S)-2-oxopyrrolidin-3-yl)butan-2-yl)-3-azabicyclo[3.1.0]hexane-2-carboxamide]
- IC50 [4]: 14 ± 3 nM

SMILES: CC1(C)C2CN(C(=O)C=Cc3ccccc3)C(C(=O)NC(CC3CCNC3=O)C(=O)C(=O)NCc3ccccc3)C21 (centres unmarked) [XDL2a]
- Activity in SARS-CoV M^pro assay [5]: completely inactive

SMILES: CC(C)(C)[C@H](NC(=O)C(F)(F)F)C(=O)N1C[C@H]2[C@@H]([C@H]1C(=O)N[C@H](C#N)C[C@@H]1CCNC1=O)C2(C)C [nirmatrelvir, reference compound]
- Inhibition rate against the 3C protease of EV-A71 [1, 6]: 33%
- Inhibition rate against the 3C protease of CVB3 [3, 6]: 55%
